Measured values: EP4782450A1, “NOVEL SKELETAL DERIVATIVE EFFECTIVE FOR HER2 MUTATION, AND PHARMACEUTICAL COMPOSITION COMPRISING SAME” (Hanmi Pharm. Co., Ltd., priority 2023, dated 2025)

How the values were obtained:
Ba/F3 HER2 A775insYVMA = assay: Growth inhibition of Ba/F3 cells engineered to overexpress HER2 A775_G776insYVMA (CellTiter-Glo luminescence); format: cell-based; conditions: Mus musculus, BaF3, 72 hours, concentrations 1000 to 0.32 nM, read-out: Ba/F3 HER2^YVMA GI50 class
Experimental: (§1) Experimental Example: Growth inhibition of Ba/F3 HER2 A775insYVMA and wild-type Ba/F3 cells
(§2) In this Experimental Example, the compounds obtained in Examples 1 to 92 were evaluated for their ability to inhibit growth of cells harboring either the HER2 A775insYVMA mutation or wild-type EGFR. For this purpose, Ba/F3 cells (ATCC, USA) were genetically engineered to overexpress either HER2 A775_G776insYVMA or wild-type EGFR, and the growth of these engineered Ba/F3 cells were monitored in the presence of the compounds described in the Examples to evaluate their effects on growth inhibition.
(§3) Specifically, culture flasks of the engineered Ba/F3 cells suspended in RPMI 1640 medium supplemented with 10% fetal bovine serum (FBS) and 1% penicillin/streptomycin (Gibco BRL, USA) were placed in a cell incubator and incubated at 37°C and 5% CO2 level to allow them to reach a stable logarithmic growth phase. The cells were then harvested by centrifugation to remove the old media and placed into a 96-well plate by dividing them into 100 µL aliquots per well at a dilution of 1×10^5 cells/mL in fresh media. Each of the compounds prepared in the preceding Examples were dissolved in 99.5% (cell culture grade) dimethylsulfoxide (DMSO) to prepare a stock solution of 10 mM concentration, which were serially diluted in the culture medium to final concentrations of 1000, 200, 40, 8, 1.6 and 0.32 nM for HER2 A775insYVMA Ba/F3 cells and concentrations of 10000, 5000, 1000, 200, 40 and 8 nM for wild-type EGFR overexpressing Ba/F3 cells.
(§4) To each aliquot of cells in the 96-well plate, a 50 µL test solution comprising one of the compounds was added to result in each well a 150 µL volume of cells with a compound in a final concentration ranging from 10 µM to 0.32 nM. The Ba/F3 cells treated with the test solution were incubated for 72 hours at 37°C and 5% CO2 level and underwent a 30-minute acclimation by placing the 96-well plate carrying the cells in ambient temperature. Thereafter, to each well was added 50 µL CellTiter-Glo® Luminescent Cell Assay Reagent (CTG, Promega, USA). After allowing 10 minutes to stabilize the signal, luminescence intensity was measured using a microplate reader. The half-maximal growth inhibition concentration (GI50) was calculated from the luminescence readout of the test compounds with the difference between the initial and final cell densities for the well untreated with a compound set at 100% growth. Nonlinear regression analysis based on log[inhibitor] vs. normalized response mode of the Graph Prism software was used for calculating GI50 for each compound, which are summarized in Table 6. The calculated GI50 values are classified in Table 6 into four categories: A for GI50 values less than 100 nM, B for GI50 values more than 100 nM but less than 1,000 nM, C for GI50 values more than 1,000 nM but less than 5,000 nM, and D for GI50 values of more than 5,000 nM.

[1] = system: wild-type EGFR overexpressing Ba/F3 cells; assay: Growth inhibition of Ba/F3 cells engineered to overexpress wild-type EGFR (CellTiter-Glo luminescence); format: cell-based; conditions: Mus musculus, BaF3, 72 hours, concentrations 10000 to 8 nM, read-out: Ba/F3 EGFR^WT GI50 class
Experimental: as §1, §2, §3, §4

| SMILES | GI50 (Ba/F3 HER2 A775insYVMA) | GI50 [1] |
| --- | --- | --- |
| C=CC(=O)NC/C=C/c1ccc2ncnc(Nc3ccc(Oc4ccn5nccc5c4)c(C)c3)c2n1 [Example 37, (E)-N-(3-(4-((3-methyl-4-(pyrazolo[1,5-a]pyridin-5-yloxy)phenyl)amino)pyrido[3,2-d]pyrimidin-6-yl)allyl)acrylamide] | 100 to 1000 nM | < 100 nM |
| C=CC(=O)NC/C=C/c1ccc2ncnc(Nc3ccc(Oc4ccn5ncnc5c4)c(C)c3)c2n1 [Example 38, (E)-N-(3-(4-((4-([1,2,4]triazolo[1,5-a]pyridin-7-yloxy)-3-methylphenyl)amino)pyrido[3,2-d]pyrimidin-6-yl)allyl)acrylamide] | < 100 nM | 100 to 1000 nM |
| C=CC(=O)N(C)C/C=C/c1ccc2ncnc(Nc3ccc(Oc4cnc5c(c4)ncn5C)c(C)c3)c2n1 [Example 43, (E)-N-methyl-N-(3-(4-((3-methyl-4-((3-methyl-3H-imidazo[4,5-b]pyridin-6-yl)oxy)phenyl)amino)pyrido[3,2-d]pyrimidin-6-yl)allyl)acrylamide] | < 100 nM | 1000 to 5000 nM |
| C=CC(=O)N1CC(/C=C/c2ccc3ncnc(Nc4ccc(Oc5cnc6c(c5)ncn6C)c(C)c4)c3n2)C1 [Example 44] | < 100 nM | > 5000 nM |
| C=CC(=O)N1CC(/C=C/c2ccc3ncnc(Nc4cc(C)c(Oc5ccc6c(c5)ncn6C)cc4F)c3n2)C1 [Example 45] | < 100 nM | > 5000 nM |
| C=CC(=O)N1CC(/C=C/c2ccc3ncnc(Nc4ccc(Oc5cnc6c(c5)ncn6C)c(C)c4F)c3n2)C1 [Example 47] | < 100 nM | 1000 to 5000 nM |
| C=CC(=O)N1CC(/C=C/c2ccc3ncnc(Nc4ccc(Oc5ccc6cn(C)nc6c5)c(C)c4)c3n2)C1 [Example 48, (E)-1-(3-(2-(4-((3-methyl-4-((2-methyl-2H-indazol-6-yl)oxy)phenyl)amino)pyrido[3,2-d]pyrimidin-6-yl)vinyl)azetidin-1-yl)prop-2-en-1-one] | 100 to 1000 nM | > 5000 nM |
| C=CC(=O)N(C)C/C=C/c1ccc2ncnc(Nc3ccc(Cc4ccn5ncnc5c4)c(C)c3)c2n1 [Example 56, (E)-N-(3-(4-((4-([1,2,4]triazolo[1,5-a]pyridin-7-ylmethyl)-3-methylphenyl)amino)pyrido[3,2-d]pyrimidin-6-yl)allyl)-N-methylacrylamide] | < 100 nM | 100 to 1000 nM |
| C=CC(=O)N(C)C/C=C/c1ccc2ncnc(Nc3ccc(Oc4ccc5ocnc5c4)c(C)c3)c2n1 [Example 57, (E)-N-(3-(4-((4-(benzo[d]oxazol-5-yloxy)-3-methylphenyl)amino)pyrido[3,2-d]pyrimidin-6-yl)allyl)-N-methylacrylamide] | < 100 nM | 100 to 1000 nM |

Next, values leading:

| GI50 (Ba/F3 HER2 A775insYVMA) | GI50 [1] | SMILES |
| --- | --- | --- |
| < 100 nM | > 5000 nM | C=CC(=O)NC/C=C/c1ccc2ncnc(Nc3ccc(Oc4ccc5c(c4)ncn5C)c(C)c3Cl)c2n1 [Example 36, (E)-N-(3-(4-((2-chloro-3-methyl-4-((1-methyl-1H-benzo[d]imidazol-5-yl)oxy)phenyl)amino)pyrido[3,2-d]pyrimidin-6-yl)allyl)acrylamide] |
| < 100 nM | 100 to 1000 nM | C=CC(=O)NC/C=C/c1ccc2ncnc(Nc3ccc(Oc4ccn5ccnc5c4)c(C)c3)c2n1 [Example 39, (E)-N-(3-(4-((4-(imidazo[1,2-a]pyridin-7-yloxy)-3-methylphenyl)amino)pyrido[3,2-d]pyrimidin-6-yl)allyl)acrylamide] |
| < 100 nM | > 5000 nM | Cc1cc(Nc2ncnc3ccc(/C=C/CNC(=O)/C=C/CN(C)C)nc23)ccc1Oc1ccc2c(c1)ncn2C [Example 40, (E)-4-(dimethylamino)-N-((E)-3-(4-((3-methyl-4-((1-methyl-1H-benzo[d]imidazol-5-yl)oxy)phenyl)amino)pyrido[3,2-d]pyrimidin-6-yl)allyl)but-2-enamide] |
| < 100 nM | 1000 to 5000 nM | Cc1c(Oc2ccc3c(c2)ncn3C)ccc(Nc2ncnc3ccc(/C=C/CNC(=O)/C=C/CN(C)C)nc23)c1F [Example 41, (E)-4-(dimethylamino)-N-((E)-3-(4-((2-fluoro-3-methyl-4-((1-methyl-1H-benzo[d]imidazol-5-yl)oxy)phenyl)amino)pyrido[3,2-d]pyrimidin-6-yl)allyl)but-2-enamide] |
| < 100 nM | 1000 to 5000 nM | C=CC(=O)N(C)C/C=C/c1ccc2ncnc(Nc3ccc(Oc4ccc5c(c4)ncn5C)c(C)c3F)c2n1 [Example 42, (E)-N-(3-(4-((2-fluoro-3-methyl-4-((1-methyl-1H-benzo[d]imidazol-5-yl)oxy)phenyl)amino)pyrido[3,2-d]pyrimidin-6-yl)allyl)-N-methylacrylamide] |
| < 100 nM | 1000 to 5000 nM | C=CC(=O)N1CC(/C=C/c2ccc3ncnc(Nc4ccc(Oc5ccc6c(c5)ncn6C)c(C)c4F)c3n2)C1 [Example 46] |
| < 100 nM | > 5000 nM | C=CC(=O)N(CC)C/C=C/c1ccc2ncnc(Nc3ccc(Oc4ccc5c(c4)ncn5C)c(C)c3)c2n1 [Example 49, (E)-N-ethyl-N-(3-(4-((3-methyl-4-((1-methyl-1H-benzo[d]imidazol-5-yl)oxy)phenyl)amino)pyrido[3,2-d]pyrimidin-6-yl)allyl)acrylamide] |
| < 100 nM | 1000 to 5000 nM | C=CC(=O)N(C)C(C)/C=C/c1ccc2ncnc(Nc3ccc(Oc4ccc5c(c4)ncn5C)c(C)c3)c2n1 (stereo not shown) [Example 50, (E)-N-methyl-N-(4-(4-((3-methyl-4-((1-methyl-1H-benzo[d]imidazol-5-yl)oxy)phenyl)amino)pyrido[3,2-d]pyrimidin-6-yl)but-3-en-2-yl)acrylamide] |
| < 100 nM | 1000 to 5000 nM | C=CC(=O)N(C)[C@@H](C)/C=C/c1ccc2ncnc(Nc3ccc(Oc4ccc5c(c4)ncn5C)c(C)c3)c2n1 [Example 51, (S,E)-N-methyl-N-(4-(4-((3-methyl-4-((1-methyl-1H-benzo[d]imidazol-5-yl)oxy)phenyl)amino)pyrido[3,2-d]pyrimidin-6-yl)but-3-en-2-yl)acrylamide] |
| < 100 nM | 1000 to 5000 nM | C=CC(=O)N(C)[C@H](C)/C=C/c1ccc2ncnc(Nc3ccc(Oc4ccc5c(c4)ncn5C)c(C)c3)c2n1 [Example 52, (R,E)-N-methyl-N-(4-(4-((3-methyl-4-((1-methyl-1H-benzo[d]imidazol-5-yl)oxy)phenyl)amino)pyrido[3,2-d]pyrimidin-6-yl)but-3-en-2-yl)acrylamide] |
| < 100 nM | 1000 to 5000 nM | C=CC(=O)N(C/C=C/c1ccc2ncnc(Nc3ccc(Oc4ccc5c(c4)ncn5C)c(C)c3)c2n1)C(C)(C)C [Example 53, (E)-N-(tert-butyl)-N-(3-(4-((3-methyl-4-((1-methyl-1H-benzo[d]imidazol-5-yl)oxy)phenyl)amino)pyrido[3,2-d]pyrimidin-6-yl)allyl)acrylamide] |
| < 100 nM | > 5000 nM | C=CC(=O)N(C)C/C=C/c1ccc2ncnc(Nc3cc(C)c(Oc4ccc5c(c4)ncn5C)cc3OC)c2n1 [Example 54, (E)-N-(3-(4-((2-methoxy-5-methyl-4-((1-methyl-1H-benzo[d]imidazol-5-yl)oxy)phenyl)amino)pyrido[3,2-d]pyrimidin-6-yl)allyl)-N-methylacrylamide] |
| < 100 nM | > 5000 nM | C=CC(=O)N(C)C/C=C/c1ccc2ncnc(Nc3ccc(Oc4ccc5c(c4)ncn5C)c(F)c3)c2n1 [Example 55, (E)-N-(3-(4-((3-fluoro-4-((1-methyl-1H-benzo[d]imidazol-5-yl)oxy)phenyl)amino)pyrido[3,2-d]pyrimidin-6-yl)allyl)-N-methylacrylamide] |
| 100 to 1000 nM | 1000 to 5000 nM | Cc1cc(Nc2ncnc3ccc(/C=C/CNC(=O)/C=C/[C@H]4CCCN4C)nc23)ccc1Oc1ccc2c(c1)ncn2C [Example 58, (E)-N-((E)-3-(4-((3-methyl-4-((1-methyl-1H-benzo[d]imidazol-5-yl)oxy)phenyl)amino)pyrido[3,2-d]pyrimidin-6-yl)allyl)-3-((R)-1-methylpyrrolidin-2-yl)acrylamide] |
